Test [1] deals with renilla luciferase reporter. Description: In-vivo dual luciferase reporter read-out in yeast cells, renilla luciferase reporter. It counts as cell-based. Particulars: combined read-outs of 2, 4 and 10 μM. The source says: Luciferase read-out data are represented normalized to the individual luciferase reporter (Ren, Lamb3-FF, Lamb3-PTC-FF) read-outs in the untreated state set at 100% (normalizer); for renilla control—the untreated state—mean and standard deviation of quantifications from twelve biological replicates, each with six technical replicates (72 reads), are shown. For Lamb3-FF control—the untreated state—mean and standard deviation of quantifications from six biological replicates, each with six technical replicates (36 reads), are shown. For Lamb3-PTC control—the untreated state—mean and standard deviation of quantifications from two biological replicates, each with six technical replicates (12 reads), are shown. Quantification upon treatment with ART and ATZ, respectively, for both, Ren (216 reads) and Lamb3-FF (105 reads), is shown by combining read-out data obtained by treatment with 2, 4, and 10 μM ART and ATZ (treated), respectively, and is normalized to the respective untreated control (normalizer). For luciferase reporter read-outs of Lamb3-PTC-FF treated with 2 μM, 4 μM and 10 μM ART and 2, 4, and 10 nM ATZ, respectively, mean and standard deviation of quantification from two biological replicates for ART (12 reads) and three biological replicates for ATZ (18 reads), with six technical replicates each, are shown normalized to Lamb3-PTC-FF control. […]
For orientation: In a reporter assay the amount or activity of a reporter protein is the signal.

The test system of test [2] is Lamb3-FF. Description: In-vivo dual luciferase reporter read-out in yeast cells, Lamb3-FF reporter. It counts as cell-based. Particulars: for protein expression level of Lamb3-FF luciferase reporter upon small molecule treatment: combined read-outs of 2, 4 and 10 μM; for increase for Lamb3-FF protein expression: not significant. The source says:
(§1) Luciferase read-out data are represented normalized to the individual luciferase reporter (Ren, Lamb3-FF, Lamb3-PTC-FF) read-outs in the untreated state set at 100% (normalizer); for renilla control—the untreated state—mean and standard deviation of quantifications from twelve biological replicates, each with six technical replicates (72 reads), are shown. For Lamb3-FF control—the untreated state—mean and standard deviation of quantifications from six biological replicates, each with six technical replicates (36 reads), are shown. For Lamb3-PTC control—the untreated state—mean and standard deviation of quantifications from two biological replicates, each with six technical replicates (12 reads), are shown. Quantification upon treatment with ART and ATZ, respectively, for both, Ren (216 reads) and Lamb3-FF (105 reads), is shown by combining read-out data obtained by treatment with 2, 4, and 10 μM ART and ATZ (treated), respectively, and is normalized to the respective untreated control (normalizer). For luciferase reporter read-outs of Lamb3-PTC-FF treated with 2 μM, 4 μM and 10 μM ART and 2, 4, and 10 nM ATZ, respectively, mean and standard deviation of quantification from two biological replicates for ART (12 reads) and three biological replicates for ATZ (18 reads), with six technical replicates each, are shown normalized to Lamb3-PTC-FF control.
Obtaining evidence for drug directed manipulation of rpL35 to selectively increase full-length Lamb3-PTC expression has to be tested in functional assays. The inventors opted to first test small molecule action in the versatile yeast cell factory, employing the dual luciferase reporter system used in the original 2-SSRS (Bauer et al., 2013).

For test [3], the target named is T1, human rpL35 (Homo sapiens, UniProt P42766). Particulars: cited from earlier work.
For test [4], the system named is Lamb3-PTC-FF. Kind of test: In-vivo dual luciferase reporter read-out in yeast cells, Lamb3-PTC-FF reporter. It counts as cell-based. Particulars: normalized to untreated control.
From the text: as §1
(§2) Luciferase read-out data are represented normalized to the individual luciferase reporter (Lamb3-FF, Lamb3-PTC-FF, FF, and FF-PTC) of a respective control in the untreated state set at 100% (normalizer). Twelve biological replicates (n=12) for all detections. Normalization for treatment is shown, additional controls were run, but are not shown. Dosages: ART 2 μM, ATZ 1.6 nM and erythromycin 4 μM, respectively. Combination treatment […] are 50 nM and 0.08 nM, respectively, i.e. 40-fold and 20-fold less than individually applied compounds.
The inventors opted to first test small molecule action in the versatile yeast cell factory, employing the dual luciferase reporter system used in the original 2-SSRS (Bauer et al., 2013).

For test [5], the system named is Lamb3PTC. Kind of test: Hela in vitro translation assays. It counts as biochemical, human.
The target of test [6] is T1, human rpL35. Kind of test: NMR titration series (2D 1H,15N HSQC) of 15N rpL35-His6 with ligand. It counts as binding. Also on record: MBP (N, cleaved yes); made in house; host or cells: E. coli BL21. Particulars: for number of amide signals with significant chemical shift perturbations: HSQC spectrum upon ligand addition; for binding to human rpL35 by NMR titration: changes in NMR spectra in presence of small molecule. Here is the method:
NMR experiments were recorded at 25° C. (298K) on a 700 MHz Bruker Ascend spectrometer equipped with cryogenically cooled TCI probe. All spectra were processed using Topspin 3.5 and analyzed with CARA 1.8.4.2. (Keller R. Optimizing the Process of Nuclear Magnetic Resonance Spectrum Analysis and Computer Aided Resonance Assignment. ETH Zurich; 2004) and NMRFAM-Sparky (Lee W, Tonelli M, Markley J L. NMRFAM-SPARKY: enhanced software for biomolecular NMR spectroscopy. Bioinformatics. 2015 Apr. 15; 31(8):1325-7). Concentration of ^15N labeled rpL35-His6 ranged from 200 to 400 μM and the sample was measured in a salt tolerant susceptibility matched slot tube (Shigemi™) with total volume of 170 μl.
NMR spectroscopy is able by comparative analysis of protein vs. protein+small molecule binder to asses binding sites of the small molecule on the protein. In this initial study the affinity of rpL35 towards artesunate and atazanavir was established by a simple titration series in which the inventors have been tracking perturbations to chemical shifts and peak heights in the 2D ^1H, ^15N HSQC spectrum. Aliquots of artesunate/atazanavir were added into the solution of ^15N rpL35 of which 2D 1H, ^15N HSQC spectrum was recorded immediately upon ligand addition. Perturbations of protein chemical shifts in ^15N HSQC spectrum are indicative of changes to the chemical environment of amide groups caused by binding of a ligand to the protein target.
Following the artesunate-protein rpL35 complex titration, the inventors have recorded 3D spectra of the same sample using ^15N NOESY-HSQC, ^15N TOCSY-HSQC, HNHA pulse sequences. The inventors extracted chemical shifts of amide ^1H, ^15N, HA, HB from the above mentioned spectra, and compared measured values with the average chemical shifts of common amino acids in Biological Magnetic resonance Data Bank (BMRB; http://www.bmrb.wisc.edu). In the 3D ^1H, ^15N NOESY-HSQC the inventors focused also on the presence of water signal which can indicate if the amino group is solvent accessible. […] However, collection of the basic set of chemical shifts mentioned earlier allowed the inventors to estimate amino acid type since many of them have quite characteristic values (e. g. alanine, threonine, and glycine). 3D ^15N TOCSY-HSQC helped the inventors to differentiate between amino acid types which have similar NH chemical shifts, such as leucine, lysine, valine. […] Using this approach the inventors obtained a set of protein signals which changed their position in 2D ^1H^15N-HSQC spectrum upon interaction with the ligand (artesunate, atazanavir) and information on the most probable amino acid type. […]

Test [7] has as its system FF-PTC. Kind of test: In-vivo dual luciferase reporter read-out in yeast cells, FF-PTC reporter. It counts as cell-based. Particulars: erythromycin 4 μM; indicator of lack of specific activity. Here is the method:
as §2

For test [8], the system named is laminin 332. Particulars: primary keratinocytes from three GS-JEB patients; cited from earlier work.
The test system of test [9] is Lamb3 protein with the R635XPTC mutation. Particulars: very high, therapeutically not applicable dose; cited from earlier work.

Consider `C[C@H]1[C@H](OC(=O)CCC(=O)O)O[C@@H]2O[C@@]3(C)CC[C@H]4[C@H](C)CC[C@@H]1[C@@]24OO3` [artesunate], for which the “protein expression level of renilla luciferase reporter upon small molecule treatment” value in test [1] was “no significant increase”. For the same molecule, in test [2], the “protein expression level of Lamb3-FF luciferase reporter upon small molecule treatment” value is reported as “no significant increase”. Also, the “increase for Lamb3-FF protein expression” value in test [2] (treatment with 4 μM) is 1,1 fold. Besides, in test [2] (treatment with 10 μM), the “increase for Lamb3-FF protein expression” value was found to be 1.2 fold. Besides, the “binding to human rpL35 in biotinylation assay” value in test [3] is “binder of human rpL35”. Further, in [4] (treatment with 2 μM), the “increase in full-length Lamb3-PTC-FF protein expression” value stood at 2.2 fold. Further, in test [5], the Lamb3PTC expression result is “increase”. For the same molecule, in test [6], the “number of amide signals with significant chemical shift perturbations” value stood at 10 and the “binding to human rpL35 by NMR titration” value is listed as “bind human rpL35 protein at several possible binding pockets”.
Consider `COC(=O)N[C@H](C(=O)N[C@@H](Cc1ccccc1)[C@@H](O)CN(Cc1ccc(-c2ccccn2)cc1)NC(=O)[C@@H](NC(=O)OC)C(C)(C)C)C(C)(C)C` [atazanavir], for which the “protein expression level of renilla luciferase reporter upon small molecule treatment” value in test [1] is reported as “no significant increase”. Also, the “protein expression level of Lamb3-FF luciferase reporter upon small molecule treatment” value in test [2] is “no significant increase”. Also, the results for the “increase in full-length Lamb3-PTC-FF protein expression” value in test [4] (treatment with 2 μM), in [4] (treatment with 4 μM) and in [4] (treatment with 10 μM) were 1.8 fold, 1.9 fold and 2.2 fold, respectively. Further, the Lamb3PTC expression entry in [5] is “increase”. Besides, the “number of amide signals with significant chemical shift perturbations” value in test [6] came out at 5. For the same molecule, the “binding to human rpL35 by NMR titration” value in test [6] was “bind human rpL35 protein at several possible binding pockets”.
With `CC[C@H]1OC(=O)[C@H](C)[C@@H](O[C@H]2C[C@@](C)(OC)[C@@H](O)[C@H](C)O2)[C@H](C)[C@@H](O[C@@H]2O[C@H](C)C[C@H](N(C)C)[C@H]2O)[C@](C)(O)C[C@@H](C)C(=O)[C@H](C)[C@@H](O)[C@]1(C)O` [erythromycin], in test [7], the “FF-PTC reporter read-out upon treatment” value is “increase”.
As for gentamicin, the “induction of functional laminin 332” value in test [8] is listed as “induced functional laminin 332”. In addition, the “Lamb3 protein expression relative to normal level” value in test [9] is 30%.

(Values after patent US20230288402A1, “MOLECULES TARGETING RIBOSOMAL PROTEIN RPL35/UL29 FOR USE IN THE TREATMENT OF DISEASES, IN PARTICULAR EPIDERMOLYSIS BULLOSA (EB)” (KBHB CONSULT GMBH, priority 2020, published 2023).)
